Measurements as given in paper PMC13155482 (Science Advances, 2025).
Positions count from the first letter of the chain named. Read-outs that look alike come from different tables or passages of the source.

Legend:
5-HT1A [1] = target: T1, 5-HT1A (Homo sapiens, UniProt P08908); experiment: 5-HT1A-mediated cAMP inhibition; assay type: cell-based
T1 sequence (P08908 1-422): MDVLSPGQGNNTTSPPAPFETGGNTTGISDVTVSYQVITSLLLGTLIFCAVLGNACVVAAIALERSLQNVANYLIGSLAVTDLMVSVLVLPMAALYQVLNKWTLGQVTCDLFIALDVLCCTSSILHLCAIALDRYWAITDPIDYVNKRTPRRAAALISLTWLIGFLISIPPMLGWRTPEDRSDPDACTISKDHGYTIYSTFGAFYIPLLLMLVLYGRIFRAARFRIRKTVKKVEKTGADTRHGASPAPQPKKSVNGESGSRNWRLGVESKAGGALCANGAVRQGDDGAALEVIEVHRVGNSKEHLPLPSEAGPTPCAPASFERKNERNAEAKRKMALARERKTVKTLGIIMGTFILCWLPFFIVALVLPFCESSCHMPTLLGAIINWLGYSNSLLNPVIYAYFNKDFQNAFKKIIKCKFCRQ

5-HT1A A222V = target: T2, 5-HT1A A222V (Homo sapiens, UniProt P08908, A222V); conditions: Goa
T2 sequence (P08908 1-422 A222V): T1 sequence (P08908 1-422) with A222V

5-HT1A S199A [2] = target: T3, 5-HT1A S199A (Homo sapiens, UniProt P08908, S199A); experiment: cell-based; conditions: EC50, Goa
T3 sequence (P08908 1-422 S199A): T1 sequence (P08908 1-422) with S199A

5-HT1A [3] = target: T1, 5-HT1A; experiment: BRET Gi1 activation at WT 5-HT1A; conditions: Gi1, WT 5-HT1A, compared to antagonist methiothepin
5-HT1A S199A [4] = target: T3, 5-HT1A S199A; conditions: Gi1, 5-HT1A S199A
5-HT1A F112A [5] = target: T4, 5-HT1A F112A (Homo sapiens, UniProt P08908, F112A); conditions: Goa
T4 sequence (P08908 1-422 F112A): T1 sequence (P08908 1-422) with F112A

5-HT1A [6] = target: T1, 5-HT1A; experiment: BRET Goa activation at WT 5-HT1A
5-HT1A S199A [7] = target: T3, 5-HT1A S199A; conditions: Gz
5-HT1A I189A = target: T5, 5-HT1A I189A (Homo sapiens, UniProt P08908, I189A); conditions: 5-HT1A I189 mutant
T5 sequence (P08908 1-422 I189A): T1 sequence (P08908 1-422) with I189A

5-HT1A, Gi1 D315P = target: T6, 5-HT1A, Gi1 D315P (Homo sapiens, UniProt P08908); conditions: activity comparable to vehicle
T6 sequence (P08908 1-422): T1 sequence (P08908 1-422)

5-HT1A F112A [8] = target: T4, 5-HT1A F112A; conditions: Gz
5-HT1A F112A [9] = target: T4, 5-HT1A F112A; conditions: Gi1, 5-HT1A F112A

CN1CC2c3ccccc3Oc3ccc(Cl)cc3C2C1 (stereo not drawn) [Asenapine]
agonist character in cAMP inhibition (5-HT1A [1]): partial agonists
Emax (%WT 5-HT) (5-HT1A A222V): 64.7 %WT 5-HT
EC50 (5-HT1A S199A [2]): 6.84 nM
Gi1 activation (5-HT1A [3]): no significant activity
activation (5-HT1A S199A [4]): no significant activity
effect of F112A mutation on efficacy (5-HT1A F112A [5]): seemingly ablates
EC50 (5-HT1A [6]): 9.12 nM
activation (5-HT1A S199A [7]): no significant activity
effect of I189 mutation on activity (5-HT1A I189A): ablates asenapine activity
signaling through Gi1 D315P (5-HT1A, Gi1 D315P): loss of concentration-dependent agonist signaling

O=C1CC2(CCCC2)CC(=O)N1CCCCN1CCN(c2ncccn2)CC1 [Buspirone]
effect of F112A mutation on efficacy (5-HT1A F112A [5]): seemingly ablates efficacy
effect of F112A mutation on efficacy (5-HT1A F112A [8]): seemingly ablates efficacy
effect of F112A mutation on efficacy (5-HT1A F112A [9]): seemingly ablates efficacy

O=C1CC2(CCCC2)CC(=O)N1CCCCN1CCN(c2nsc3ccccc23)CC1 [Tiospirone]
agonist character in cAMP inhibition (5-HT1A [1]; HEK293T, compared to 5-HT): partial agonists

CN1CCN2c3ccccc3Cc3ccccc3C2C1 (stereo not drawn) [mianserin]
agonist character in cAMP inhibition (5-HT1A [1]; HEK293T, compared to 5-HT): nearly a full agonist
